Assay results taken from PubChem BioAssay (NCI).
“And” between values parts separate entries of the source, which are not always exact repeats. Equal entries are not always repeated.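 Where inhibition never reached the appropriate level, the endpoint shown equals the highest concentration tested. Otherwise, values were interpolated linearly from a five-concentration, 48-hour dose response in 96-well plates. At the GI50, growth is halved. TGI: concentration producing complete growth inhibition.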

What was measured:
Experiment in all cases: NCI tumour cell line growth inhibition, 48 h
SW-620 colon = test system: SW-620 colon
BT-549 breast = test system: BT-549 breast
SK-MEL-5 melanoma = test system: SK-MEL-5 melanoma
786-0 renal = test system: 786-0 renal
SR leukemia = test system: SR leukemia
SNB-75 CNS = test system: SNB-75 CNS
SK-MEL-28 melanoma = test system: SK-MEL-28 melanoma
HOP-92 NSCLC = test system: HOP-92 NSCLC
HS 578T breast = test system: HS 578T breast
UACC-257 melanoma = test system: UACC-257 melanoma

Row | SMILES | TGI (SW-620 colon) | TGI (BT-549 breast) | TGI (SK-MEL-5 melanoma) | TGI (786-0 renal) | TGI (SR leukemia) | TGI (SNB-75 CNS) | TGI (SK-MEL-28 melanoma) | TGI (HOP-92 NSCLC) | TGI (HS 578T breast) | TGI (UACC-257 melanoma) | GI50 (SW-620 colon) | GI50 (BT-549 breast) | GI50 (SK-MEL-5 melanoma) | GI50 (786-0 renal) | GI50 (SR leukemia) | GI50 (SNB-75 CNS) | GI50 (SK-MEL-28 melanoma) | GI50 (HOP-92 NSCLC) | GI50 (HS 578T breast) | GI50 (UACC-257 melanoma)
1 | c1cc2c(c(NC3=NCCN3)c1)CCCC2 | > 100 µM | > 100 µM | > 100 µM | > 100 µM | > 100 µM | > 100 µM | > 100 µM | > 100 µM | > 100 µM | > 100 µM | – | – | – | – | – | – | – | – | – | –
2 | O=C1NC(=O)C(c2c[nH]c3ccccc23)=C1c1ccccc1 | > 25 µM | > 25 µM | > 25 µM | > 25 µM | > 25 µM | > 25 µM | > 25 µM | > 25 µM | > 25 µM | > 25 µM | > 25 µM | > 25 µM | > 25 µM | > 25 µM | > 25 µM | 10.3 µM | > 25 µM | > 25 µM | > 25 µM | > 25 µM
3 | N=C1C(c2nc3ccccc3s2)=C(O)CN1c1cc(Cl)cc(Cl)c1 | > 100 µM | > 100 µM | > 100 µM | > 100 µM | > 100 µM | 77.4 µM | > 100 µM | > 100 µM | 64.8 µM | > 100 µM | > 100 µM | > 100 µM | > 100 µM | 88.7 µM | > 100 µM | 18.7 µM | > 100 µM | 59.3 µM | 16.1 µM | 40.2 µM
4 | Cc1cc2c(cc1Cl)SC(C(=O)c1ccc(Cl)c(Cl)c1)NS2(=O)=O (stereo not drawn) | 72.9 µM | 56.5 µM | > 100 µM | 97 µM | 81.8 µM | 81.1 µM | 88.9 µM | 65.9 µM | > 100 µM | > 100 µM | 27.6 µM | 29.8 µM | 42.3 µM | 37.3 µM | 31.4 µM | 31.3 µM | 30.4 µM | 25.2 µM | 70 µM | 67.2 µM
5 | CNc1ncc2cc(-c3cc(NC(=O)NCCC(C)(C)C)c(F)cc3C)c(C)nc2n1 | > 100 µM | > 100 µM | 16.3 µM and > 10 µM | > 100 µM | > 75.2 µM | 7.36 µM and 7.6 µM | 0.118 µM and 0.239 µM | 0.423 µM and 0.511 µM | 33.5 µM and > 10 µM | 0.0555 µM | 0.27 µM and 0.256 µM | 3.29 µM and 2.49 µM | 0.458 µM and 0.309 µM | 0.811 µM and 0.81 µM | 0.811 µM and 3.13 µM | 0.949 µM and 1.04 µM | < 0.01 µM and 0.0101 µM | 0.0571 µM and 0.0903 µM | 0.839 µM and 0.582 µM | 0.0139 µM
6 | OCc1ccc(N(Cc2ccc(F)cc2)CC2CCC2)cc1Cl | 21 µM | 32.3 µM | 26.2 µM | 25.8 µM | 29 µM | 25.3 µM | 28.3 µM | 12.8 µM | 40.3 µM | 7.78 µM | 7.02 µM | 17.5 µM | 13.3 µM | 12.3 µM | 11.7 µM | 12.4 µM | 14.8 µM | 0.839 µM | 17.3 µM | 1.53 µM
7 | COc1ccc2nc3cc(Cl)ccc3c(Nc3cc(C(C)C)c(O)cc3C)c2c1 | 3.37 µM | 2.89 µM | 3.1 µM | 3.05 µM | 12 µM | 7.61 µM | 4.05 µM | 3.11 µM | 3.4 µM | 3.07 µM | 1.77 µM | 0.588 µM | 1.61 µM | 1.64 µM | 0.703 µM | 2.16 µM | 1.91 µM | 1.16 µM | 1.61 µM | 1.35 µM
8 | COC1=CC2CCN3Cc4cc5c(cc4C(C1O)C23)OCC5 (stereo not drawn) | > 100 µM | > 47 µM | 8.89 µM | > 61.9 µM | > 100 µM | 6.24 µM | > 24.2 µM | > 28 µM | > 32.7 µM | 34.6 µM | 5.21 µM | 3.94 µM | 2.18 µM | 2.47 µM | – | 1.24 µM | 3.46 µM | 2.97 µM | 5.7 µM | 2.09 µM
9 | COc1c2ccccc2c(O)c2c(=O)ccn(C)c12 | > 100 µM | 84.2 µM | 14.4 µM | 66.4 µM | 81.8 µM | > 53.9 µM | > 80.1 µM | 91.1 µM | 61.5 µM | 12.6 µM | 16.5 µM | 14.7 µM | 3.77 µM | 17.2 µM | 8.94 µM | 12.9 µM | 21.2 µM | 25.6 µM | 12.2 µM | 3.45 µM
10 | Fc1ccc(C2C3CCOc4c(ccc5ccccc45)C3=NN2c2ccccc2)cc1 (stereo not drawn) | > 100 µM | > 100 µM | > 100 µM | > 100 µM | > 100 µM | > 100 µM | > 100 µM | > 100 µM | > 100 µM | > 100 µM | > 100 µM | > 100 µM | 71.4 µM | > 100 µM | 13.3 µM | > 78.7 µM | > 88.7 µM | > 84.6 µM | > 88.6 µM | 43.9 µM
11 | CCc1ccc([O-])c(C=NCCCN(C)CCCN=Cc2cc(C)ccc2[O-])c1.[Co+3].[N-]=[N+]=[N-] | 50 µg/mL and > 150 µg/mL | 50 µg/mL | 50 µg/mL and > 150 µg/mL | 50 µg/mL | 50 µg/mL | – | 50 µg/mL and > 150 µg/mL | 50 µg/mL and 54.7 µg/mL | 50 µg/mL | 50 µg/mL and > 150 µg/mL | 50 µg/mL and > 150 µg/mL | 50 µg/mL | 50 µg/mL and 139 µg/mL | 43.1 µg/mL | 36.4 µg/mL | 1.38 µg/mL and 10 µg/mL | 50 µg/mL and 91.8 µg/mL | 15.9 µg/mL and 22 µg/mL | 13.8 µg/mL | 50 µg/mL and > 150 µg/mL
12 | O=C1NC(=N[C@H](CO)c2ccccc2)S/C1=C\c1ccc2ncccc2c1 | > 20.5 µM | > 16 µM | 10.6 µM | > 25 µM | 4.85 µM | 17.7 µM | > 25 µM | 18.7 µM | > 13.8 µM | 19.2 µM | 4.02 µM | 3.95 µM | 4.89 µM | 7.31 µM | 0.786 µM | 1.46 µM | 7.96 µM | 4.59 µM | 3.49 µM | 6.39 µM
13 | CN1CCN(c2ccc(Nc3ncc4cc5n(c4n3)C3(CCCCC3)CNC5=O)nc2)CC1 | 11.8 µM | 8.97 µM | 15.6 µM | 17 µM | 3.28 µM | 4.54 µM | 26 µM | 18.2 µM | 8.8 µM | 39.2 µM | 0.166 µM | 3.35 µM | 3.2 µM | 1.53 µM | 0.307 µM | 1.41 µM | 3.01 µM | 1.27 µM | 1.71 µM | 5.67 µM
